The target in this experiment is human DGKζ (Homo sapiens (Human), UniProt Q13574). In words: Human DGKζ kinase activity inhibition assay (ADP-Glo). The settings on record: in vitro human DGKζ kinase activity inhibition assay; read-out: IC50. In kind it is biochemical. In a few lines: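 ADP-Glo luminescence, reflecting ADP produced, served as the readout of activity. Full-length human DGKζ, FLAG-tagged at the C-terminus and insect-cell expressed, was used; lipid substrate mix was sonicated with octyl-β-D-glucopyranoside in 50 mM MOPS pH 7.4.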
Sequence of human DGKζ (Q13574 other isoform, or with tags, fused parts or gaps): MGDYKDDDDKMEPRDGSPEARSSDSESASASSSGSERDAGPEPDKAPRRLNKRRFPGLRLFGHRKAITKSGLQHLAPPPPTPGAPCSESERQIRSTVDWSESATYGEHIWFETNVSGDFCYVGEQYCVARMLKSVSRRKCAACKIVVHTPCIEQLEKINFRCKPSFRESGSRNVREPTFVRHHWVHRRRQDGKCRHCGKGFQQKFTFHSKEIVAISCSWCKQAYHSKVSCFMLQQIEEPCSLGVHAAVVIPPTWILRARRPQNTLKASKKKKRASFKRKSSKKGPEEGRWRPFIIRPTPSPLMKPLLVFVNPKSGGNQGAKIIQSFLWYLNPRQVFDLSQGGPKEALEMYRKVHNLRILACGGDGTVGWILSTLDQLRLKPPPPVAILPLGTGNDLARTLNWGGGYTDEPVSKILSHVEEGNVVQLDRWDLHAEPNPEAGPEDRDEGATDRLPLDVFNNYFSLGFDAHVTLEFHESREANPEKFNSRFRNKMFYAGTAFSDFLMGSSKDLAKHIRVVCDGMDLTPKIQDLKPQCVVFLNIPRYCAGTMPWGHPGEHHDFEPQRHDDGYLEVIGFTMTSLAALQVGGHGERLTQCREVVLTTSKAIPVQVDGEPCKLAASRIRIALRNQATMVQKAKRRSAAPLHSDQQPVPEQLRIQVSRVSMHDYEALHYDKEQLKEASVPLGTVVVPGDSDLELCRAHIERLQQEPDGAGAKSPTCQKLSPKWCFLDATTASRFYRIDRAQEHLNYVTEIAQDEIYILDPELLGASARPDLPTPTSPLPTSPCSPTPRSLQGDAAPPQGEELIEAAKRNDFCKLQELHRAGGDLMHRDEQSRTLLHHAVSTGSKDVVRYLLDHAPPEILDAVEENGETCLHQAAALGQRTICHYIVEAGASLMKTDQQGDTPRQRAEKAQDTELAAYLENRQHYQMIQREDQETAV
On the technique in general: In ADP-Glo the light output rises with the ADP produced.
For `CC(C(N)=O)N(c1ccc(F)cc1)c1nc(N)c(C(=O)c2ccc(C(=O)NC[C@H](C)O)cc2)s1` (mixture of isomers) [Example 263, 4-[4-amino-2-(N-(2-amino-1-methyl-2-oxo-ethyl)-4-fluoro-anilino)thiazole-5-carbonyl]-N-[(2S)-2-hydroxypropyl]benzamide (mixture of stereoisomers)], the IC50 (as a rule, the midpoint of a concentration-inhibition curve) was determined as 0.539 µM.
As to `Cc1ccc(N(c2nc(N)c(C(=O)c3ccccc3)s2)C(C)C(N)=O)cc1` (single isomer, unassigned) [Example 73.2, 2-(N-(4-amino-5-benzoyl-thiazol-2-yl)-4-methyl-anilino)propanamide], the IC50 was 0.0821 µM.
As to `CC(C(N)=O)N(c1ccc2c(c1)OC(F)(F)O2)c1nc(N)c(C(=O)c2ccccc2)s1` (racemic) [Example 197, rac-2-[(4-amino-5-benzoyl-thiazol-2-yl)-(2,2-difluoro-1,3-benzodioxol-5-yl)amino]propanamide], the 50% inhibitory concentration (IC50) was 0.09 µM.
Take `CC(C(N)=O)N(c1ccc(F)c(F)c1)c1nc(N)c(C(=O)c2ccc(OC(F)F)cc2)s1` (racemic) [Example 49, rac-2-(N-[4-amino-5-[4-(difluoromethoxy)benzoyl]thiazol-2-yl]-3,4-difluoro-anilino)propanamide]: the IC50 stood at 0.00276 µM.
The figure for `CC(C(N)=O)N(c1ccc(F)cc1)c1nc(N)c(C(=O)c2ccc(OC(F)F)nc2)s1` (single isomer, unassigned) [Example 162.1, 2-(N-[4-amino-5-[6-(difluoromethoxy)pyridine-3-carbonyl]thiazol-2-yl]-4-fluoro-anilino)propanamide] is 0.012 µM; for `CC(C(N)=O)N(c1ccc(OC(F)F)c(F)c1)c1nc(N)c(C(=O)c2ccncc2)s1` (racemic) [Example 208, rac-2-[N-[4-amino-5-(pyridine-4-carbonyl)thiazol-2-yl]-4-(difluoromethoxy)-3-fluoro-anilino]propanamide] it is 0.672 µM; for `CC(C(N)=O)N(c1ccc(F)cc1)c1nc(N)c(C(=O)c2ccc(N3CCC(C)(C#N)CC3)nc2)s1` (single isomer, unassigned; enantiomer 1) [Example 285.1, 2-(N-[4-amino-5-[6-(4-cyano-4-methyl-1-piperidyl)pyridine-3-carbonyl]thiazol-2-yl]-4-fluoro-anilino)propanamide (enantiomer 1)] it is 0.034 µM.
With `CC(C(N)=O)N(c1ccc(OC(F)F)c(Cl)c1)c1nc(N)c(C(=O)c2ccc(OC(F)F)nc2)s1` (racemic) [Example 204, rac-2-[N-[4-amino-5-[6-(difluoromethoxy)pyridine-3-carbonyl]thiazol-2-yl]-3-chloro-4-(difluoromethoxy)anilino]propanamide], the concentration for half-maximal inhibition (IC50) is 0.073 µM.
Consider `CC(C(N)=O)N(c1ccc(F)cc1)c1nc(N)c(C(=O)c2ccccc2)s1` (racemic) [Example 61, rac-2-(N-(4-amino-5-benzoyl-thiazol-2-yl)-4-fluoro-anilino)propanamide], for which the IC50 came out at 0.0932 µM.
Consider `CC1CCN(c2ccc(C(=O)c3sc(N(c4ccc(F)cc4)C(C)C(N)=O)nc3N)cn2)CC1` (racemic) [Example 276, rac-2-(N-[4-amino-5-[6-(4-methyl-1-piperidyl)pyridine-3-carbonyl]thiazol-2-yl]-4-fluoro-anilino)propanamide], for which the IC50 is 0.029 µM.
For `CC(C(N)=O)N(c1ccc(Cl)c(F)c1)c1nc(N)c(C(=O)c2ccncc2)s1` (racemic) [Example 56, rac-2-(N-[4-amino-5-(pyridine-4-carbonyl)thiazol-2-yl]-4-chloro-3-fluoro-anilino)propanamide], the 50% inhibitory concentration (IC50) worked out at 0.12 µM.
Consider `CC(C(N)=O)N(c1ccc(F)cc1)c1nc(N)c(C(=O)c2cccc(C#N)c2)s1` (racemic) [Example 12, rac-2-(N-[4-amino-5-(3-cyanobenzoyl)thiazol-2-yl]-4-fluoro-anilino)propanamide], for which the IC50 came out at 0.364 µM.
Regarding `Cc1cccc(CNC(=O)COc2ccc(C(=O)c3sc(N(c4ccc(F)cc4)C(C)C(N)=O)nc3N)cc2)c1` (racemic) [Example 83, rac-2-(N-[4-amino-5-[4-[2-(m-tolylmethylamino)-2-oxo-ethoxy]benzoyl]thiazol-2-yl]-4-fluoro-anilino)propanamide], the 50% inhibitory concentration (IC50) came to 0.0243 µM.
In the case of `C[C@H](C(N)=O)N(c1ccc(F)c(F)c1)c1nc(N)c(C(=O)c2ccc(OC(F)F)cc2)s1` [Example 49.2, (R)-2-(N-[4-amino-5-[4-(difluoromethoxy)benzoyl]thiazol-2-yl]-3,4-difluoro-anilino)propanamide], the IC50 was determined as 0.0021 µM.
Turning to `CC(C(N)=O)N(c1ccc(F)cc1)c1nc(N)c(C(=O)c2ccc(C#N)cc2)s1` (single isomer, unassigned) [Example 33.2, 2-(N-[4-amino-5-(4-cyanobenzoyl)thiazol-2-yl]-4-fluoro-anilino)propanamide], the IC50 was determined as 0.0228 µM.
With `CC(C(N)=O)N(c1nc(N)c(C(=O)c2ccccc2)s1)c1c(F)cc(F)cc1F` (racemic) [Example 4, rac-2-(N-(4-amino-5-benzoyl-thiazol-2-yl)-2,4,6-trifluoro-anilino)propanamide], the IC50 was found to be 0.833 µM.
With `CC(C(N)=O)N(c1ccc(F)cc1)c1nc(N)c(C(=O)c2ccc(OCC(=O)N(C)CCc3ccccc3)cc2)s1` (racemic) [Example 127, rac-2-(N-[4-amino-5-[4-[2-[methyl(2-phenylethyl)amino]-2-oxo-ethoxy]benzoyl]thiazol-2-yl]-4-fluoro-anilino)propanamide], the IC50 was determined as 0.0731 µM.
`CC(Oc1ccc(C(=O)c2sc(N(c3ccccc3)C(C)C(N)=O)nc2N)cc1)C(N)=O` (single isomer, unassigned) [Example 45.1, 2-(N-[4-amino-5-[4-[2-amino-1-methyl-2-oxo-ethoxy]benzoyl]thiazol-2-yl]anilino)propanamide]: the IC50 amounted to 0.201 µM.
The value for `CC(C(N)=O)N(c1ccc(F)c(F)c1)c1nc(N)c(C(=O)c2ccncc2)s1` (single isomer, unassigned) [Example 50.2, 2-(N-[4-amino-5-(pyridine-4-carbonyl)thiazol-2-yl]-3,4-difluoro-anilino)propanamide] was 14.3 µM; that for `CC(C(N)=O)N(c1ccc(F)c(F)c1)c1nc(N)c(C(=O)c2cccnc2)s1` (racemic) [Example 184, rac-2-(N-[4-amino-5-(pyridine-3-carbonyl)thiazol-2-yl]-3,4-difluoro-anilino)propanamide] was 0.428 µM.
With `Cc1ccc(C(=O)c2sc(N(c3ccc(F)cc3)C(C)C(N)=O)nc2N)cc1` (single isomer, unassigned) [Example 63.2, 2-(N-[4-amino-5-(4-methylbenzoyl)thiazol-2-yl]-4-fluoro-anilino)propanamide], the IC50 turned out to be 0.0185 µM.
As for `CC(C(N)=O)N(c1ccc2c(c1)OC(F)(F)O2)c1nc(N)c(C(=O)c2ccc(OC(F)F)cc2)s1` (racemic) [Example 214, rac-2-[[4-amino-5-[4-(difluoromethoxy)benzoyl]thiazol-2-yl]-(2,2-difluoro-1,3-benzodioxol-5-yl)amino]propanamide], the IC50 was 0.016 µM.
As for `CC(C(N)=O)N(c1ccc(C(F)(F)F)cc1)c1nc(N)c(C(=O)c2ccc(OC(F)F)cc2)s1` (single isomer, unassigned) [Example 43.2], the IC50 is 0.00593 µM.
The figure for `C#CCN(C)C(=O)COc1ccc(C(=O)c2sc(N(c3ccc(F)cc3)C(C)C(N)=O)nc2N)cc1` (racemic) [Example 93, rac-2-(N-[4-amino-5-[4-[2-[methyl(prop-2-ynyl)amino]-2-oxo-ethoxy]benzoyl]thiazol-2-yl]-4-fluoro-anilino)propanamide] is 0.187 µM; for `CC(C(N)=O)N(c1ccc(F)cc1)c1nc(N)c(C(=O)c2ccc(C#N)c(F)c2)s1` (single isomer, unassigned) [Example 21.1, 2-(N-[4-amino-5-(4-cyano-3-fluoro-benzoyl)thiazol-2-yl]-4-fluoro-anilino)propanamide] it is 5.51 µM.
Turning to `Cc1ccc(N(c2nc(N)c(C(=O)c3ccccc3)s2)C(C)C(N)=O)cc1` (racemic) [Example 73, rac-2-(N-(4-amino-5-benzoyl-thiazol-2-yl)-4-methyl-anilino)propanamide], the IC50 amounted to 0.148 µM.
The figure for `CC(C(N)=O)N(c1ccc(Cl)c(Cl)c1)c1nc(N)c(C(=O)c2ccccc2)s1` (racemic) [Example 35, rac-2-(N-(4-amino-5-benzoyl-thiazol-2-yl)-3,4-dichloro-anilino)propanamide] is 0.0253 µM; for `CC(C(N)=O)N(c1ccc(F)c(Cl)c1)c1nc(N)c(C(=O)c2ccncc2)s1` (racemic) [Example 160, rac-2-(N-[4-amino-5-(pyridine-4-carbonyl)thiazol-2-yl]-3-chloro-4-fluoro-anilino)propanamide] it is 0.187 µM; for `CC(Oc1ccc(C(=O)c2sc(N(c3ccc(F)cc3)C(C)C(N)=O)nc2N)cc1)C(N)=O` (racemic) [Example 69, 2-(N-[4-amino-5-[4-(2-amino-1-methyl-2-oxo-ethoxy)benzoyl]thiazol-2-yl]-4-fluoro-anilino)propanamide] it is 0.0641 µM.
The figure for `CC(C(N)=O)N(c1ccc(C(F)(F)F)cc1)c1nc(N)c(C(=O)c2ccc(OC(F)F)cc2)s1` (racemic) [Example 43, rac-2-[N-[4-amino-5-[4-(difluoromethoxy)benzoyl]thiazol-2-yl-4-(trifluoromethyl)anilino]propanamide] is 0.0111 µM; for `CC(C)Oc1ccc(N(c2nc(N)c(C(=O)c3ccccc3)s2)C(C)C(N)=O)cc1` (racemic) [Example 3, rac-2-(N-(4-amino-5-benzoyl-thiazol-2-yl)-4-isopropoxy-anilino)propanamide] it is 0.927 µM; for `CC(C(N)=O)N(c1ccc(OC(F)F)c(Cl)c1)c1nc(N)c(C(=O)c2ccc(OC(F)F)cc2)s1` (racemic) [Example 201, rac-2-[N-[4-amino-5-[4-(difluoromethoxy)benzoyl]thiazol-2-yl]-3-chloro-4-(difluoromethoxy)anilino]propanamide] it is 0.025 µM.

The record behind these values is patent publication US11964953B2, “Substituted aminothiazoles as DGKzeta inhibitors for immune activation” (Bayer Aktiengesellschaft, priority 2020, dated 2024).
